In patent publication US20040147562A1, “Methods of treating conditions associated with an EDG-1 receptor” (priority 2002, published 2004):

Columns and labels:
human Edg-1 receptors [1] = experiment: Intracellular calcium (FLIPR) assay, HTC cells expressing Edg-1; type: cell-based; details: Edg-1 relative to other Edg receptors
Description: (§1) The compounds were tested in HTC cells expressing human Edg-1 receptors. […] The compounds were tested in this recombinant system first, and subsequently tested in cell lines expressing Edg-1 (in addition to other Edg receptors).
(§2) […] receptors such as Edg-1, couple to calcium effector pathways, and result in increases in intracellular calcium following receptor activation (An, 1998, J. Cell Biochem. Supp 30-31:147-157). This biological response lends itself to a very efficient, high-throughput screen using a Fluorescence Imaging Plate Reader (FLIPR; Molecular Devices, Sunnyvale, Calif.). The FLIPR system is a real-time, cell-based assay system with continuous fluorescence detection using a cooled CCD camera. The FLIPR system was used to develop an Edg-1 receptor screen. Rat hepatoma cells stably expressing Edg-1/3i3 chimera or Edg-1 and Gqi were plated on 384-well plates and loaded with a calcium dye loading kit (Molecular Devices, Sunnyvale, Calif.) for 1 hour at room temperature. Cells were then placed on the FLIPR^384 (Molecular Devices, Sunnyvale, Calif.) and excited by an argon laser at 488 nm. The data for the entire 384-well plate was updated every second. An integrated robotic pipettor allowed for simultaneous compound addition into each individual well in the plate.

[2] = system: human umbilical vein endothelial cells; experiment: S1P induced calcium response in human umbilical vein endothelial cells; type: cell-based; details: HUVEC; FIG. 4, 5
mouse T cells = experiment: Mouse T cell migration in Transwell chambers with matrigel; type: cell-based; details: in the presence of S1P; FIG. 14
Description: To further elucidate the role of the Edg-1 receptor in lymphocyte trafficking, migration of mouse T cells was analyzed in both in vitro and in vivo models. Migration of mouse T cells was first tested in Transwell chambers (Costar, Cambridge, Mass.) with polycarbonate fibers having a pore width of 8 μm, separated by a layer of matrigel. Stimulants S1P or exodus-2 were separately added to the bottom chamber. The effects of exodus-2 were tested alone, with S1P, and with S1P and Edg-1 antagonists 101 and 102.

human Edg-1 receptors [3] = target: T1, human Edg-1 receptors (Homo sapiens, UniProt P21453); experiment: Intracellular calcium (FLIPR) assay, HTC cells expressing Edg-1; type: cell-based; design: Edg 1 IC50 μM; fused on or other part: in the chimera reading: the third intracellular loop (i3) of Edg-3 (S1PR3) in place of Edg-1's own
T1 sequence (P21453 whole entry, the tested form may be a part): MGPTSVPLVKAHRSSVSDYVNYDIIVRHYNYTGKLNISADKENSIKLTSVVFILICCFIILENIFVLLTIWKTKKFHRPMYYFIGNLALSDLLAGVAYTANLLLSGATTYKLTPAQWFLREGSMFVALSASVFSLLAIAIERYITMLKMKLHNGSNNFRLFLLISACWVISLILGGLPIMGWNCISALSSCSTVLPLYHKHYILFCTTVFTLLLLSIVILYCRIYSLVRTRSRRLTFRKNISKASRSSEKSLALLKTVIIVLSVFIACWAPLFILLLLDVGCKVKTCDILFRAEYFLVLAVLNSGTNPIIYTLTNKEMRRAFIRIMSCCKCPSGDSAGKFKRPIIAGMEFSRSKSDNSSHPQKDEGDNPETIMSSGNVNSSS
Description: as §1, §2

Null/Gqi = experiment: Intracellular calcium (FLIPR) assay, Null/Gqi control cells; type: cell-based; details: Rattus norvegicus; agonist
[4] = system: human peripheral blood mononuclear cells; experiment: Migration of human peripheral blood mononuclear cells; type: cell-based; details: chemoattractant; FIG. 9, 13
Description: S1P is a strong chemoattractant to human PBMCs. […] Several migration assays were performed to test this hypothesis and to determine the effect of Edg-1 agonists and antagonists on S1P mediated chemotaxis. The migration assays were performed according to the protocol described in Section 7.12, below. The results of theses assays are presented in FIG. 6, FIG. 7, FIG. 8, FIG. 9 and FIG. 13.
Cells were plated in a 24 well format using Fluoroblok filter insert plates ([…] pore size) or Fluoroblok matrigel coated filter insert plates (Becton Dickinson, San Diego, Calif.). The assay was a modified Boyden Chamber assay in which a cell suspension (1×10^5 cells/ml) was prepared in serum free medium and added to the top chamber. LPA or S1P (doses ranged from 0.1-10 μM in serum free medium) was added to the bottom chamber. Following a 20-24 hour incubation period, the number of cells migrating or invading into the lower chamber was quantitated by transferring the filter insert into a fresh 24-well plate containing 4 μg/ml calcein AM (Molecular Probes, Sunnyvale, Calif.) in Hank's Balanced Salt Solution and staining for one hour.
Detection was via fluorescent readout at 450 nm excitation/530 nm emission using a fluorimeter. The level of fluorescence correlated with cell number.
Human PBMCs are isolated from the buffy coats of healthy donors from the Stanford Blood Center. […]

human Edg-1 receptors [5] = target: T1, human Edg-1 receptors; experiment: Intracellular calcium (FLIPR) assay, HTC cells expressing Edg-1; type: cell-based; design: expressed in transfected cells; host or cells: HTC rat hepatoma cells; details: agonist; Edg 1/Gqi
Description: as §1, §2

Row | melting point [°C] | inhibition of Edg-1 receptors (human Edg-1 receptors [3]; FIG. 1-3) | IC50 (human Edg-1 receptors [3]; Table 2, inhibition of S1P response, read-out: Edg 1 IC50) [µM] | EC50 (Null/Gqi) [µM] | EC50 (human Edg-1 receptors [5]) [µM] | SMILES | Fold Selectivity (human Edg-1 receptors [1]; inhibition (Table 2)) [Fold] | inhibition of S1P induced calcium responses [2] | effect on exodus-2-stimulated T cell migration (mouse T cells) | Fold Selectivity (human Edg-1 receptors [1]; agonist (Table 4)) [Fold] | migration of human peripheral blood mononuclear cells [4]
1 | 150 to 152 | specifically inhibited | 1.69 | – | – | O=C(c1cccnc1)N1N=C(c2ccc(Br)cc2)CC1(O)C(F)(F)F (stereo not shown) [Compound 102] | >11.8 | inhibits S1P induced calcium responses in a dose-dependent manner | enhance exodus-2-stimulated migration | – | –
2 | – | – | – | > 25 | 10 | COc1cc(C(=O)c2cc(Cl)ccc2N)cc(OC)c1OC [Compound 104, (2-Amino-5-chlorophenyl)-(3,4,5-trimethoxyphenyl)methanone] | – | – | – | >2.5 | stimulates migration of human peripheral blood mononuclear cells at micromolar concentrations
